Assay results from patent publication US20260138961A1, “MODULATORS OF MITOCHONDRIAL DNA REPLICATION” (Pretzel Therapeutics, Inc., priority 2022, published 2026).

Target: T1, POLγA:A467T (Homo sapiens, UniProt P54098, A467T)
T1 sequence (P54098 1-1239 A467T): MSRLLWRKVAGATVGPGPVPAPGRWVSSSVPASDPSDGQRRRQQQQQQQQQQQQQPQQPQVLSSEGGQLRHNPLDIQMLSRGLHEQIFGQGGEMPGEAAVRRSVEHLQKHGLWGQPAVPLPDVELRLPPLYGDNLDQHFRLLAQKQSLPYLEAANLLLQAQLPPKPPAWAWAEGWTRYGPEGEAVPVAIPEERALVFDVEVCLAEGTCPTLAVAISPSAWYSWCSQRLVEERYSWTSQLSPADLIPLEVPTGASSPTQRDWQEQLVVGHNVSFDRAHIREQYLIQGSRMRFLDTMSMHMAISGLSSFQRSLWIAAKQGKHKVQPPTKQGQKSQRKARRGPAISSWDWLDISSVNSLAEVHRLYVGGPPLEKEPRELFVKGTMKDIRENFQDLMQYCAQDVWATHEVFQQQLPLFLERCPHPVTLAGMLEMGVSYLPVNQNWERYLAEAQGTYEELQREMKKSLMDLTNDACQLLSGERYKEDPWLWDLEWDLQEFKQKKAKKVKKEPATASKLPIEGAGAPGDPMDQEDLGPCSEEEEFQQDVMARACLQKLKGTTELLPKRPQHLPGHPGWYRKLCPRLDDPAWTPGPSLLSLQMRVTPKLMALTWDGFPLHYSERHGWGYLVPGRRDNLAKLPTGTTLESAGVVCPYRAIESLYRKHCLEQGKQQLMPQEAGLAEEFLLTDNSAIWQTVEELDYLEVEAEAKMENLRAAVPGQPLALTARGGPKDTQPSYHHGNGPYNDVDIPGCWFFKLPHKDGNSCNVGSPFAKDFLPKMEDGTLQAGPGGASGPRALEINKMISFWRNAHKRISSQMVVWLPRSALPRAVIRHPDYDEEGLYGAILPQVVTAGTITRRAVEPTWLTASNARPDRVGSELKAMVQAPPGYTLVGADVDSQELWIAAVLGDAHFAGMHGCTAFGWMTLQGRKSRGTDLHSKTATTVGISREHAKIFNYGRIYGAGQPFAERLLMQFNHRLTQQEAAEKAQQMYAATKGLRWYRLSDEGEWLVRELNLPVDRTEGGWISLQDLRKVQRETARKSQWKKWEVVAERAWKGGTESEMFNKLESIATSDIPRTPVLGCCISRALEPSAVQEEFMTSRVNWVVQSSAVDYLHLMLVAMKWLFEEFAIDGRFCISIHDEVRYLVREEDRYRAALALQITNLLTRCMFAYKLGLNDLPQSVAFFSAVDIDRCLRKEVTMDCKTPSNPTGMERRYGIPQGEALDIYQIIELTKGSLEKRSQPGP
T1 sequence (Q9UHN1 1-485 partner): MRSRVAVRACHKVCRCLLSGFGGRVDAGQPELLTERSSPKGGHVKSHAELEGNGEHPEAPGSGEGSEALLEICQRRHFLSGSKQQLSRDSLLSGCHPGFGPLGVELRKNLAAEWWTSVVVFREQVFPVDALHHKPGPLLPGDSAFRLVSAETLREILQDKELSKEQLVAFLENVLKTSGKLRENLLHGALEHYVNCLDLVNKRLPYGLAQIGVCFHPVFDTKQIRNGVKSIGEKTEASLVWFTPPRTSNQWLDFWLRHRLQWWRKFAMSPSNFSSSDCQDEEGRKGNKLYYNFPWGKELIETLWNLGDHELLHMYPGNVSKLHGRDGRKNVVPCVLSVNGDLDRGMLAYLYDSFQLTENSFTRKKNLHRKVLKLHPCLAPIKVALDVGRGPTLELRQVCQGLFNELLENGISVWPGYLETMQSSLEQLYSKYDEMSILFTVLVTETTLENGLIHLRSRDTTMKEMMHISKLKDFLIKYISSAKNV
Experiment: DNA polymerization assay, POLγA:A467T mutant
Type: biochemical
Conditions: stimulation of polymerase activity, primed M13mp18 ssDNA, 37° C. 2 hours; read-out: A467T AC50
Description: DNA Polymerization Assay to Monitor Effects on Human Wildtype POLγ and Four Disease-Causing Mutant Variants of Human POLγ.
The ability of small molecules to stimulate the polymerase activity of POLγ was analyzed in a quantitative fluorescence SYBR Green I assay with fluorescence intensity (FI) readout.
In the presence of dNTPs, wild type human POLγ and mutant derivatives thereof were incubated with single-stranded, circular M13mp18 ssDNA hybridized to a short DNA oligonucleotide that functions as a primer for initiation of DNA synthesis. POLγ and mutant derivatives thereof will extend the primer and use the M13mp18 molecule as a template to synthesize long stretches of double-stranded DNA. SYBR Green I, which is a double-stranded DNA-binding dye, was used to quantify formation of double-stranded DNA in the reaction. When bound to double-stranded DNA, SYBR Green I fluorescence increases by up to 100-fold.
The assay was performed in the 384-well plate format. Upon addition of compounds, changes in double-stranded DNA synthesis activity can be monitored by following effects on fluorescent intensity.
The reactions also contained the accessory POLγB subunit, and the human mitochondrial single-stranded DNA binding protein (mtSSB).
The DNA template mixture used in the assay contained 0.5 nM primed M13 mp18 ssDNA, 400 nM mtSSB, 0.1 mM Tris-HCl (pH 8.0), 0.1 mM dNTP, 10 mM MgCl2, 0.1 mg/mL BSA, 1 mM TCEP solution, and 0.02% Triton X-100. The DNA template mixture for the wild type protein contained either 100 μM dNTP, 1 μM dNTP, or 0.1 μM dNTP, designated in Table 2 as 100 μM, 1 μM, and 0.1 μM, respectfully.
Microplates with compounds (0.1 μL in each well) to be tested in the assay were prepared from 10 mM compound stocks in 100% DMSO, and equal amounts of DMSO without any compound were added to positive and negative control wells.
The protein mixture was dispensed (5 μL into each well) into compound plates and incubated at 37° C. for 15 minutes. After incubation, 5 μL of the DNA template mixture was dispensed into each well. The plates were then incubated at 37° C. for 2 hours.
During incubation, a combined stop buffer and detection reagent solution was prepared. The buffer contained 25 mM EDTA (pH 8.0), 0.02% Triton X-100, and SYBR Green I [Invitrogen] diluted 10,000× (for fluorescent readout). EDTA will stop the enzymatic reaction by chelating magnesium ions.

Question: How did the AC50 turn out when Cc1cc(S(=O)(=O)Nc2cccc(C(=O)N3C[C@@H](F)C[C@H](F)C3)c2)c(C)cc1Cl [Example 115, 4-chloro-N-(3-((3S,5S)-3,5-difluoropiperidine-1-carbonyl)phenyl)-2,5-dimethylbenzenesulfonamide] was run?
Answer: > 100 µM

Question: With Cc1cc(Cl)ccc1S(=O)(=O)Nc1cccc(C(=O)N2CCC[C@H]2C)c1 [Example 116, (R)-4-chloro-2-methyl-N-(3-(2-methylpyrrolidine-1-carbonyl)phenyl)benzenesulfonamide] as the molecule, how does the AC50 read?
Answer: > 100 µM

Question: How did the AC50 turn out when Cc1cc(S(=O)(=O)Nc2cccc(C(=O)N3CCC[C@H]3C)c2)ccc1Cl [Example 117, (R)-4-chloro-3-methyl-N-(3-(2-methylpyrrolidine-1-carbonyl)phenyl)benzenesulfonamide] was run?
Answer: > 100 µM

Question: With C[C@@H]1CCCN1C(=O)c1cccc(NS(=O)(=O)c2ccc(C(F)(F)F)cc2)c1 [Example 118, (R)-N-(3-(2-methylpyrrolidine-1-carbonyl)phenyl)-4-(trifluoromethyl)benzenesulfonamide] as the molecule, how does the AC50 read?
Answer: > 100 µM

Question: Cc1cc(S(=O)(=O)Nc2cccc(C(=O)N3CCCC3)c2)c(C)cc1Cl [Example 119, 4-chloro-2,5-dimethyl-N-(3-(pyrrolidine-1-carbonyl)phenyl) benzenesulfonamide] was tested. Which AC50 did it give?
Answer: > 100 µM

Question: With O=S(=O)(Nc1csc(-c2ccccc2)n1)c1ccc(Cl)cc1 [Example 120, 4-chloro-N-(2-phenylthiazol-4-yl)benzenesulfonamide] as the molecule, how does the AC50 read?
Answer: > 100 µM

Question: How did the AC50 turn out when O=S(=O)(Nc1csc(-c2ccccc2)n1)c1cccnc1 [Example 121, N-(2-phenylthiazol-4-yl)pyridine-3-sulfonamide] was run?
Answer: > 100 µM

Question: How did the AC50 turn out when O=S(=O)(Nc1csc(-c2ccccc2)n1)c1ccc(F)c(F)c1 [Example 122, 3,4-difluoro-N-(2-phenylthiazol-4-yl)benzenesulfonamide] was run?
Answer: > 100 µM

Question: Cc1ccc(S(=O)(=O)Nc2csc(-c3ccccc3)n2)c(C)c1 [Example 123, 2,4-dimethyl-N-(2-phenylthiazol-4-yl)benzenesulfonamide] was tested. Which AC50 did it give?
Answer: > 100 µM

Question: For Cc1cc(F)ccc1S(=O)(=O)Nc1csc(-c2ccccc2)n1 [Example 124, 4-fluoro-2-methyl-N-(2-phenylthiazol-4-yl)benzenesulfonamide], which AC50 is on record?
Answer: > 100 µM

Question: How did the AC50 turn out when O=S(=O)(Nc1csc(-c2ccccc2)n1)c1ccccc1Cl [Example 125, 2-chloro-N-(2-phenylthiazol-4-yl)benzenesulfonamide] was run?
Answer: 8 µM

Question: How did the AC50 turn out when O=S(=O)(Nc1csc(-c2ccccc2)n1)c1ccc(F)cc1Cl [Example 126, 2-chloro-4-fluoro-N-(2-phenylthiazol-4-yl)benzenesulfonamide] was run?
Answer: 32 µM

Question: With O=S(=O)(Nc1csc(-c2ccccc2)n1)c1ccc(C(F)(F)F)cc1 [Example 127, N-(2-phenylthiazol-4-yl)-4-(trifluoromethyl)benzenesulfonamide] as the molecule, how does the AC50 read?
Answer: > 100 µM

Question: O=S(=O)(Nc1csc(-c2ccccc2)n1)c1cccc2nccnc12 [Example 128, N-(2-phenylthiazol-4-yl)quinoxaline-5-sulfonamide] was tested. Which AC50 did it give?
Answer: > 100 µM

Question: With Cc1cc(S(=O)(=O)N[C@H]2CCCN(C(=O)c3ccccc3)C2)c(C)cc1Cl [Example 129, (S)-N-(1-benzoylpiperidin-3-yl)-4-chloro-2,5-dimethylbenzenesulfonamide] as the molecule, how does the AC50 read?
Answer: > 100 µM

Question: Cc1cc(S(=O)(=O)N[C@H]2CCCN(C(=O)N3CCCC3)C2)c(C)cc1Cl [Example 130, (S)-4-chloro-2,5-dimethyl-N-(1-(pyrrolidinee-1-carbonyl)piperidin-3-yl)benzenesulfonamide] was tested. Which AC50 did it give?
Answer: > 100 µM

Question: Cc1cc(S(=O)(=O)Nc2nsc(-c3ccccc3)n2)c(C)cc1Cl [Example 131, 4-chloro-2,5-dimethyl-N-(5-phenyl-1,2,4-thiadiazol-3-yl)benzenesulfonamide] was tested. Which AC50 did it give?
Answer: > 100 µM

Question: Cc1cc(S(=O)(=O)Nc2nc(-c3ccccc3)ns2)c(C)cc1Cl [Example 132, 4-chloro-2,5-dimethyl-N-(3-phenyl-1,2,4-thiadiazol-5-yl)benzenesulfonamide] was tested. Which AC50 did it give?
Answer: > 100 µM

Question: For Cc1cc(S(=O)(=O)Nc2cccc(C(=O)N3CCC[C@@H]3C)c2)c(C)cc1Cl [Example 133, (S)-4-chloro-2,5-dimethyl-N-(3-(2-methylpyrrolidine-1-carbonyl)phenyl)benzenesulfonamide], which AC50 is on record?
Answer: > 100 µM

Question: Which AC50 does the source give for Cc1ccc(C)c(S(=O)(=O)Nc2csc(-c3ccccc3)n2)c1 [Example 134, 2,5-dimethyl-N-(2-phenylthiazol-4-yl)benzenesulfonamide] here?
Answer: 3 µM

Question: With Cc1cc(Cl)ccc1S(=O)(=O)Nc1csc(-c2ccccc2)n1 [Example 135, 4-chloro-2-methyl-N-(2-phenylthiazol-4-yl)benzenesulfonamide] as the molecule, how does the AC50 read?
Answer: 32 µM

Question: Which AC50 does the source give for Cc1cc(S(=O)(=O)Nc2csc(-c3ccccc3)n2)c(Cl)cc1F [Example 136, 2-chloro-4-fluoro-5-methyl-N-(2-phenylthiazol-4-yl)benzenesulfonamide] here?
Answer: 5 µM

Question: For O=S(=O)(Nc1csc(-c2ccccc2)n1)c1ccc2ncsc2c1 [Example 137, N-(2-phenylthiazol-4-yl)benzo[d]thiazole-6-sulfonamide], which AC50 is on record?
Answer: > 100 µM

Question: Which AC50 does the source give for O=S(=O)(Nc1csc(-c2ccccc2)n1)c1ccc(Cl)cc1Cl [Example 138, 2,4-dichloro-N-(2-phenylthiazol-4-yl)benzenesulfonamide] here?
Answer: > 100 µM

Question: How did the AC50 turn out when O=S(=O)(Nc1csc(-c2ccccc2)n1)c1ccccn1 [Example 139, N-(2-phenylthiazol-4-yl)pyridine-2-sulfonamide] was run?
Answer: > 100 µM

Question: For O=S(=O)(Nc1csc(-c2ccccc2)n1)c1ccc(F)cc1F [Example 140, 2,4-difluoro-N-(2-phenylthiazol-4-yl)benzenesulfonamide], which AC50 is on record?
Answer: > 100 µM

Question: O=S(=O)(Nc1csc(-c2ccccc2)n1)c1ccc(C(F)(F)F)cc1F [Example 141, 2-fluoro-N-(2-phenylthiazol-4-yl)-4-(trifluoromethyl)benzenesulfonamide] was tested. Which AC50 did it give?
Answer: > 100 µM
